The source of these data is ChEMBL document CHEMBL4130588, “Ubiquitin-Specific Inhibitors for the Treatment of Cancers, Autoimmune, and Infectious Diseases” (ACS Med Chem Lett, 2017).

Assay [1] is described as follows: Inhibition of recombinant human His6-tagged USP28-5 (1 to 1077 residues) using Ub-Rh110 as substrate pretreated for 30 mins followed by substrate addition measured after 20 mins by fluorescence assay.
Assay [2] deals with T1, Ubiquitin carboxyl-terminal hydrolase 25 (Homo sapiens, UniProt Q9UHP3).
T1 sequence (Q9UHP3 whole entry): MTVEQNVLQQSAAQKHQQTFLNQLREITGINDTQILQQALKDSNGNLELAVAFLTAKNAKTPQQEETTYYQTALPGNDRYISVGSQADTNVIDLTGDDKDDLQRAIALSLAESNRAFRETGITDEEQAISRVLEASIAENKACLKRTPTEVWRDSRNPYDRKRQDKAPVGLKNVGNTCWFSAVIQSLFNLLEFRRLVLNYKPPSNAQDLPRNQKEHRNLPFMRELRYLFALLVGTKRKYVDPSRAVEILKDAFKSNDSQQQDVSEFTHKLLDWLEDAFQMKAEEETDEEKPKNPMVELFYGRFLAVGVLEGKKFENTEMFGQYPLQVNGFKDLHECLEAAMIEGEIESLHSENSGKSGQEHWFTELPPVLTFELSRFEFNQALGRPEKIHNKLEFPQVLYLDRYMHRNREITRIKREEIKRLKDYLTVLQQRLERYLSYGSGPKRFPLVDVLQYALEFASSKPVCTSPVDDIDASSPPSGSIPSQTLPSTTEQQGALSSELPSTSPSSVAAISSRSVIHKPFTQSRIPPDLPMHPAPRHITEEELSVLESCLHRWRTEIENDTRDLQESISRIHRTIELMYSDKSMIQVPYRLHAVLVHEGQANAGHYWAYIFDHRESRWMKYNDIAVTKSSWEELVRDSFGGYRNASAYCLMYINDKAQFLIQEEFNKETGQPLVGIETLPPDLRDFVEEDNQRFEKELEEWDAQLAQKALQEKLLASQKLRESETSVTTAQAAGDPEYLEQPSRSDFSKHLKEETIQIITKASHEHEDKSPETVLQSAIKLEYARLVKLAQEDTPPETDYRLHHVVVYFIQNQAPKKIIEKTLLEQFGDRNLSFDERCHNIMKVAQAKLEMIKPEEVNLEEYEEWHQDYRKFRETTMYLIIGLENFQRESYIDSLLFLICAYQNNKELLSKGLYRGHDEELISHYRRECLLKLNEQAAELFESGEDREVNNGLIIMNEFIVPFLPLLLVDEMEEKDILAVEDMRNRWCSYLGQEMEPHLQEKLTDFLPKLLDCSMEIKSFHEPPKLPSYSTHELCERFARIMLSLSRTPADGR
Briefly: Inhibition of recombinant human His6-tagged USP25 expressed in baculovirus infected Sf21 insect cells using Ub-Rh110 as substrate pretreated for 30 mins followed by substrate addition measured after 45 mins by fluorescence assay.

For the compound `Cc1cnc2c(N)c(C(=O)NCCc3cc(F)c(N4CCNCC4)cc3F)sc2n1`, the IC50 lay within 0.2 to 2 µM in assay [1] and 2 to 10 µM in assay [2].

As to `Cc1cnc2c(N)c(C(=O)NC[C@H](C)c3ccc(N4CC5CCC(C4)N5)c(F)c3)sc2n1`, the IC50 lay within 0.2 to 2 µM in assay [1] and 2 to 10 µM in assay [2].

Turning to `Cc1cnc2c(N)c(C(=O)NCCc3ccc(N4CCNCC4)c(Cl)c3)sc2n1`, the half-maximal inhibitory concentration (IC50) in assay [1] fell in the range of 0.2 to 2 µM.

With `Cc1cnc2c(N)c(C(=O)NC[C@@H](C)c3ccc(N4CC5CCC(C4)N5)c(F)c3)sc2n1`, the values for the half-inhibitory concentration (IC50) in assay [1] and in assay [2] were 0.2 to 2 µM and 2 to 10 µM, respectively.

`Cc1cnc2c(N)c(C(=O)NCCc3ccc(N4CC5CCC(C4)N5)c(F)c3)sc2n1`: the IC50 in assay [1] and in assay [2] was below 0.2 µM each time.

Turning to `Cc1cnc2c(N)c(C(=O)NCCc3ccc(N4CC5CCC(C4)N5)c(Cl)c3)sc2n1`, the 50% inhibitory concentration (IC50) in assay [1] is below 0.2 µM.

For `Cc1cnc2c(N)c(C(=O)NCCc3cc(F)c(N4CC5CCC(C4)N5)cc3F)sc2n1`, the concentration for half-maximal inhibition (IC50) was below 0.2 µM in assay [1] and 0.2 to 2 µM in assay [2].

Regarding `Cc1cnc2c(N)c(C(=O)NCCc3ccc(N4CCNCC4)cc3)sc2n1`, the IC50 in assay [1] fell in the range of 0.2 to 2 µM.
